The text below walks through data of patent US4230703A, “11-Oxodibenz(b,e)azepines” (priority 1977, dated 1980).

The structures appear in SMILES notation.

The test system of series [1] is number of writhings (0.6% acetic acid, intraperitoneal). The experiment in a line: Test on analgesic activity (acetic acid-induced writhing). The class given is in vivo, mice (ddY, male). The settings on record: Mus musculus, po, mice; parentheses = 95% confidence limits. On the procedure:
Male mice (ddY) with a body weight of 18 to 22 g were used in groups each consisting of 10 mice. Each of the compounds was suspended in an aqueous solution of 0.5% of carboxymethyl cellulose and 2.0% of Tween 80, and the resulting suspension was administered orally to the mice through a tube. One hour after the administration, 0.6% acetic acid was administered intraperitoneally in an amount of 0.1 ml per 10 g of body weight, and the number of writhings which occurred in the mice during a period of 20 minutes after the administration was measured. The percent inhibition on a group administered with the test compound based on the control group administered only with the vehicle was calculated from the following equation, and the ED50 values of the test compounds were calculated from the percent inhibition in accordance with the method of Litchfield-Wilcoxon. [formula]
The parenthesized numerals show 95% confidence limits.
Background: An intraperitoneal irritant provokes the stretching counted in writhing tests.

Series [2] concerns volume of edema of left hind paw (carrageenin). Description: Test on anti-inflammatory activity (carrageenin hind paw edema). The class given is in vivo, Wistar male rats. The settings on record: Rattus norvegicus, po, 3 h, p.o., read-out: Percent inhibition (average value ± standard error). On the procedure: In each group, the volumes of the left hind paw were measured by a volume differential meter (made by Ugo Basile Company), and 0.1 ml of a 1% suspension of carrageenin in distilled water was subcutaneously injected into the plantar tissues of the left hind paw. One hour later, each of the test compounds was suspended in the same vehicle as used in the test on analgesic activity and administered orally to the rats. Three hours later, the volumes of the left hind paw were again measured. The increase in volume of the left hind paw of each rat in each group (the volume of edema) was measured. The percent edema inhibition on the group administered with the test compounds based on the control group administered only with the vehicle was calculated in accordance with the following equation, and the results are shown in Table 2. [formula]
(In general: In the carrageenan paw model, swelling and tenderness develop within hours.)

A short description of series [3]: in vivo. The settings on record: rat, in vivo, po. The source says:
(§1) Each of the test compounds was suspended in a physiological saline solution having dissolved therein 2% of Tween 80, and orally administered through a tube to groups of SD male and female rats (male: 130 to 150 g, female: 120 to 140 g) each group consisting of 8 rats. The rats were then observed for 2 weeks.

Series [4] relates to SD male and female rats. The experiment in a line: in vivo. The settings on record: oral.
Description: as §1

Turning to `CN1Cc2ccccc2C(=O)c2cc(CC(=O)O)ccc21` [A, 5,6-dihydro-5-methyl-11-oxodibenz[b,e]azepine-2-acetic acid], in series [1], the median effective dose (ED50) was 9 mg/kg. Moreover, in series [2], the inhibition in vivo at 10 mg/kg worked out at 28.5 ± 2.8%, the inhibition in vivo at 30 mg/kg was determined as 30.4 ± 4.4% and the inhibition in vivo at 90 mg/kg stood at 43.9 ± 6.6%.

Consider `CNC(=O)Cc1ccc2c(c1)C(=O)c1ccccc1CN2C` [Compound E, 5,6-dihydro-5-methyl-11-oxodibenz[b,e]azepine-2-acetic acid methyl amide], for which, in series [1], the ED50 is 46.5 mg/kg. For the same compound, in series [2], the inhibition in vivo at 30 mg/kg was 11.3 ± 4.3% and the inhibition in vivo at 90 mg/kg was 44.8 ± 7.5%.

As for `CN1Cc2ccccc2C(=O)c2c(CC(=O)O)cccc21` [C, 5,6-dihydro-5-methyl-11-oxodibenz[b,e]azepine-1-acetic acid], the inhibition in vivo at 90 mg/kg in series [2] was determined as 11.4 ± 12.7%. Further, the inhibition in vivo at 180 mg/kg in series [2] (180 mg/kg) turned out to be 28.6 ± 8.3%.

`CCCCC1C(=O)N(c2ccccc2)N(c2ccccc2)C1=O` [Phenylbutazone, phenylbutazone, reference compound]: the ED50 in series [1] stood at 130 mg/kg. Besides, in series [2], the inhibition in vivo at 30 mg/kg amounted to 20.7 ± 2.4% and the inhibition in vivo at 90 mg/kg worked out at 34.2 ± 5.3%.

`CN1Cc2ccccc2C(=O)c2cc(CC(=O)OCCO)ccc21` [K, hydroxyethyl 5,6-dihydro-5-methyl-11-oxodibenz[b,e]azepine-2-acetate]: in series [2], the inhibition in vivo at 30 mg/kg was determined as 23.5 ± 11.1% and the inhibition in vivo at 90 mg/kg worked out at 30.4 ± 5.5%.

As to `CN1Cc2ccccc2C(=O)c2cc(CC(=O)O)cc(Cl)c21` [G, 5,6-dihydro-4-chloro-5-methyl-11-oxodibenz[b,e]azepine-2-acetic acid], in series [2], the inhibition in vivo at 30 mg/kg amounted to 23.8 ± 6.9% and the inhibition in vivo at 90 mg/kg stood at 35.4 ± 5.5%.

For the compound `CCN1Cc2ccccc2C(=O)c2cc(CC(=O)O)ccc21` [I, 5,6-dihydro-5-ethyl-11-oxodibenz[b,e]azepine-2-acetic acid], the 50% effective dose (ED50) in series [1] worked out at 15.9 mg/kg. In addition, in series [2], the inhibition in vivo at 10 mg/kg stood at 20.2 ± 6.6%, the inhibition in vivo at 30 mg/kg came to 25.6 ± 5.8% and the inhibition in vivo at 90 mg/kg was determined as 35.1 ± 8.2%.

With `CN1Cc2ccccc2C(=O)c2cc(CC(=O)OCC3COC(C)(C)O3)ccc21` (centres unmarked) [L, 2,2-dimethyl-1,3-dioxolan-5-yl methyl 5,6-dihydro-5-methyl-11-oxodibenz[b,e]azepine-2-acetate], in series [2], the inhibition in vivo at 30 mg/kg is 17.6 ± 5.1% and the inhibition in vivo at 90 mg/kg is 33.3 ± 4%.

As to `O=C(O)Cc1ccc2c(c1)C(=O)c1ccccc1CN2` [M, 5,6-dihydro-11-oxodibenz[b,e]azepine-2-acetic acid], the median effective dose (ED50) in series [1] was 5.1 mg/kg. In series [2], the inhibition in vivo at 10 mg/kg turned out to be 37.3 ± 2.4%. Further, in series [2], the inhibition in vivo at 30 mg/kg stood at 41.2 ± 5.4%. Besides, the LD50 at 336 h in series [3] (female) was found to be 840 mg/kg; in series [3] (male) it was 810 mg/kg. Moreover, the Minimum lethal dose in series [4] (female) and in series [4] (male) was 720 mg/kg in each case.

On to `CC(C(=O)O)c1ccc2c(c1)C(=O)c1ccccc1CN2C` (centres unmarked) [B, 2-(5,6-dihydro-5-methyl-11-oxodibenz[b,e]azepin-2-yl)propionic acid], for which the 50% effective dose (ED50) in series [1] stood at 26 mg/kg. Also, in series [2], the inhibition in vivo at 30 mg/kg came to 23.2 ± 3.2% and the inhibition in vivo at 90 mg/kg was determined as 38.6 ± 5.3%.

As to `CN1Cc2ccccc2C(=O)c2ccc(CC(=O)O)cc21` [Compound D, 5,6-dihydro-5-methyl-11-oxodibenz[b,e]azepine-3-acetic acid], the 50% effective dose (ED50) in series [1] was 78 mg/kg. Further, in series [2], the inhibition in vivo at 10 mg/kg is 26.8 ± 2.9% and the inhibition in vivo at 30 mg/kg came to 36.4 ± 11.9%.

Consider `COC(=O)Cc1ccc2c(c1)C(=O)c1ccccc1CN2C` [F, methyl 5,6-dihydro-5-methyl-11-oxodibenz[b,e]azepine-2-acetate], for which the inhibition in vivo at 30 mg/kg in series [2] came to 11.8 ± 3.4%.

On to `CCCN1Cc2ccccc2C(=O)c2cc(CC(=O)O)ccc21` [J, 5,6-dihydro-5-n-propyl-11-oxodibenz[b,e]azepine-2-acetic acid], for which, in series [1], the ED50 came to 15.5 mg/kg. In addition, in series [2], the inhibition in vivo at 30 mg/kg is 18.6 ± 5.2% and the inhibition in vivo at 90 mg/kg was 30.4 ± 4.8%.

On to `CN1Cc2cc(Cl)ccc2C(=O)c2cc(CC(=O)O)ccc21` [H, 5,6-dihydro-5-methyl-8-chloro-11-oxodibenz[b,e]azepine-2-acetic acid], for which, in series [2], the inhibition in vivo at 30 mg/kg stood at 26.8 ± 7.3% and the inhibition in vivo at 90 mg/kg worked out at 34.9 ± 6.5%.

In general, ED50 refers to the dose that gives a 50% effect, or the effect in half of the subjects. As a reminder, the LD50 is the dose expected to kill half of the subjects tested. Read a high LD50 as a less toxic substance.
